For this assay, the system named is premature stop codon. Kind of assay: Premature stop codon readthrough (nonsense suppression), full length protein production by enzyme-linked immunosorbent assay. The assay is classed as cell-based. The method, then: Table 1 also provides the median maximum fold increase of the full length protein production over DMSO-treated samples as also determined by enzyme-linked immunosorbent assay within the concentration range tested (up to 1 mM).

[1] abbreviates: median, enzyme-linked immunosorbent assay, concentration range tested up to 1 mM.
The mark [2] stands for this setting: median, enzyme-linked immunosorbent assay, within concentration range tested (up to 1 mM).

Where a name gives a salt, the structure may show the parent alone. Read-outs that look alike come from different tables or passages of the source.

For the molecule `CN[C@@H]1[C@@H](O)[C@@H](O[C@@H]2[C@@H](O)[C@H](O[C@H]3O[C@H](CO)[C@@H](O)[C@H](O)[C@H]3N)[C@@H](N)C[C@H]2N)OC[C@]1(C)O` [Compound 1 sulfate, (2R,3S,4R,5R,6S)-5-amino-6-(((1R,2S,3S,4R,6S)-4,6-diamino-3-(((2R,3R,4R,5R)-3,5-dihydroxy-5-methyl-4-(methylamino)tetrahydro-2H-pyran-2-yl)oxy)-2-hydroxycyclohexyl)oxy)-2-(hydroxymethyl)tetrahydro-2H-pyran-3,4-diol], the “EC2X (median concentration that doubles the intensity of the nonsense suppression)” value (from here on “EC2X”) under setting [1] turned out to be 19 µM. Moreover, the “Max Fold over DMSO (median maximum fold increase of full length protein production over DMSO-treated samples)” value under setting [2] worked out at 47.

As for `CN[C@@H]1[C@@H](O)[C@@H](O[C@@H]2[C@@H](O)[C@H](O[C@H]3O[C@H](CO)[C@@H](O)[C@H](O)[C@H]3N)[C@@H](N)C[C@H]2N)OC[C@H]1O` [Gentamicin A sulfate], under setting [1], the “EC2X” value amounted to 566 µM. Moreover, the “Max Fold over DMSO (median maximum fold increase of full length protein production over DMSO-treated samples)” value under setting [2] is 4.1.

For the molecule `CN[C@@H]1[C@@H](O)[C@@H](O[C@@H]2[C@@H](O)[C@H](O[C@H]3O[C@H]([C@@H](C)NC)CC[C@H]3N)[C@@H](N)C[C@H]2N)OC[C@]1(C)O.O=S(=O)(O)O` [Gentamicin C1 sulfate], the “EC2X” value under setting [1] worked out at 100 µM. Under setting [2], the “Max Fold over DMSO (median maximum fold increase of full length protein production over DMSO-treated samples)” value amounted to 3.7.

As to `CN[C@@H]1[C@@H](O)[C@@H](O[C@@H]2[C@@H](O)[C@H](O[C@H]3O[C@H]([C@@H](C)N)CC[C@H]3N)[C@@H](N)C[C@H]2N)OC[C@]1(C)O` [Gentamicin C2 sulfate], the “EC2X” value under setting [1] came to 95 µM. In addition, under setting [2], the “Max Fold over DMSO (median maximum fold increase of full length protein production over DMSO-treated samples)” value stood at 5.5.

As to `CN[C@@H]1[C@@H](O)[C@@H](O[C@@H]2[C@@H](O)[C@H](O[C@H]3O[C@H]([C@H](C)N)CC[C@H]3N)[C@@H](N)C[C@H]2N)OC[C@]1(C)O.O=S(=O)(O)O` [Gentamicin C2a sulfate], under setting [1], the “EC2X” value came out at 260 µM. In addition, under setting [2], the “Max Fold over DMSO (median maximum fold increase of full length protein production over DMSO-treated samples)” value was determined as 3.1.

For the molecule Gentamicin C1a sulfate, the “EC2X” value came to 135 µM and the “Max Fold over DMSO (median maximum fold increase of full length protein production over DMSO-treated samples)” value turned out to be 2.6.

Values taken from patent US10555960B2, “Use of an aminoglycoside for nonsense mutation suppression and the treatment of disease” (PTC Therapeutics, Inc., priority 2015, dated 2020).
